Data published in patent publication US20180021278A1, “TREATMENT OR PREVENTION OF INFLAMMATION USING SERINE” (NESTEC S.A., priority 2015, published 2018).

Tested on: DSS-induced colitis
Test: DSS-induced colitis in rats, histological total colitis score of colon sections (HE staining)
Type: in vivo
Details: male Sprague-Dawley rats, 5% DSS D0-D8 then 2% DSS D9-D28, control diet supplemented with 10 g/kg dry matter serine (DSS-SER) vs alanine-supplemented DSS-ALA group
Procedure: The experimental procedures were carried out in accordance to European guidelines for the care and use of laboratory animals (Directive 2010/63/UE). 30 male Sprague-Dawley rats from Janvier (France), aged […] and weighting around 500/700g on the day of arrival, were used for this study. Animals were individually housed in cages. During the study, they had free access to food and drinking water or a dextran sulfate sodium (DSS, MW 36-44 kDa, ICN Biomedicals) solution ad libitum. Colitis was induced by treating rats with 5% DSS from D0 to D8 (acute colitis) and then 2% DSS from D9 to D28 (chronic colitis). DSS was dissolved in autoclaved water and provided ad libitum to the rats. Animals of the control group were given water not containing DSS from D0 to D28.
3 groups of rats received the following treatment and diets: […]
At the end of the experiment (D28), animals were anesthetized using a combination of ketamine and xylasine and then euthanized by cervical dislocation. […] A score (ranging from 0 to 3) was finally determined for each criterion on each colon section and a total score was calculated.

N[C@@H](CO)C(=O)O [Serine, serine]
Total colitis score (sum of 0-3 scores for mucosal degeneration, mucosal regeneration and hyperplasia, acute and sub-acute inflammation) (p<0.05): significantly lower
Total colitis score (sum of 0-3 scores for mucosal degeneration, mucosal regeneration and hyperplasia, acute and sub-acute inflammation) (p<0.05, listed as serine): reduced colitis
